The subject of series [1] is reconstructed human epidermis. To be noted: 24 h.
Description: The assay included a prime MTT assay at the end of the incubation: cell survival assay using the reconstructed in vitro 3D artificial human epidermis to assess the cytotoxic potential of the sample.
The in vitro test systems used consist of an artificial three-dimensional system of the human epidermis. A reconstructed model of artificial human skin was prepared comprising normal human epidermal keratinocytes, which was grown as an integrated three-dimensional cell culture model, perfectly mimicking human skin in vitro.
The epidermis was pre-treated for 60 minutes with 0.25% SLS and was obtained in order to induce the synthesis and release of IL-1α. Later 30 µl of the formulation object of the invention was applied on two portions of the epidermis in two replicates, and the exposure was carried out for 24 hours at 37°C, 5% C02. […]
The epidermal units are treated with 1 mg of MD (3-4,5-dimethyl-thiazol-2-yl)-2,5-diphenyl-tetrazolium bromide) solution for 3 hours at 37°C. The solution is then removed and replaced with isopropanol, with a further 2 hours of incubation at room temperature; 2 aliquots of each sample are transferred to a 96-well plate for reading. The absorbance is read at the 570 nm wavelength with a colorimeter (Tecan Sunrise remote model) provided with a microplate reader. […]
For the next series, the system named is IL-1α. Kind of series: IL-1α release ELISA on SLS-irritated reconstructed human epidermis. The format is cell-based. To be noted: positive control SLS 0.25% only. As to the method:
The assay was performed in two replicates.
In this study IL-1α was determined in the culture medium of treated and untreated epidermis, using a direct ELIS assay (enzyme-linked immuno-absorbent assay). The colorimetric signal is directly proportional to the amount of cytokine in the culture medium. The samples are read at 450 nm. The detection limit is less than 10 pg/ml.
Cytokine concentration is determined using a standard curve. The inhibition of IL-1α release was determined as: % of IL-1α inhibition: 100−(pg/ml IL−1α released from irritated; samples/pg/ml IL−1α positive control)*100 [formula]
Background: In an ELISA, binding on a coated surface is turned into a signal by an enzyme label.

Turning to `CCCCCCCCCCCCOS(=O)(=O)[O-].[Na+]` [SLS, sodium lauryl sulfate], the “% Average cell viability (ds)” value in series [1] is on record as 65.79 (0.45) %. Also, the figures for the IL-1α pg/ml average in the series with IL-1α (6h) and with IL-1α (24h) were 79.17 pg/mL and 233.86 pg/mL, respectively.

Source of the values: patent publication EP4003298B1 (Offhealth S.p.A., priority 2019, dated 2021).
